Activity calls are given as the source filed them.
Assays:
Bacillus endophyticus = assay: Antimicrobial activity against Bacillus endophyticus SP31 isolate at <500 uM by broth dilution assay; assay type: functional; conditions: Priestia endophytica
Staphylococcus aureus [1] = assay: Reduction of alpha-toxin secretion in biofilm-forming methicillin-resistant Staphylococcus aureus at <150 uM; assay type: functional, organism-based
Staphylococcus aureus [2] = assay: Growth inhibition of methicillin-resistant Staphylococcus aureus; assay type: functional, organism-based

Measured: Activity

CC(=O)c1nc(C(=O)NCCc2c[nH]c3ccccc23)cs1
inactive: all assays above

CC(=O)N[C@H](C)c1nc(C(=O)NCCc2c[nH]c3ccccc23)cs1
inactive: all assays above

C[C@@H](O)c1nc(C(=O)NCCc2c[nH]c3ccccc23)cs1
inactive: all assays above

Reference: ChEMBL document CHEMBL1141345, “Bacillamides from a hypersaline microbial mat bacterium” (J Nat Prod, 2007)
